In the NIST ThermoML archive (doi:10.1021/acs.jced.5b00820):
± gives the expanded uncertainty stated by the source.

Assay: xn = mol fraction of the nth substance listed
Settings: 102.2 kPa, Liquid, Vibrating tube method

C[Si](C)(O[Si](C)(C)c1ccccc1)c1ccccc1 [1,3-diphenyltetramethyldisiloxane] + C[Si]1(CCC(F)(F)F)O[Si](C)(CCC(F)(F)F)O[Si](C)(CCC(F)(F)F)O1
mass density [kg/m3]
Settings	308.15 K	313.15 K	318.15 K	323.15 K	328.15 K
x1 = 0.0501	1225.8 ± 0.23	1219.39 ± 0.23	1212.88 ± 0.23	1206.4 ± 0.23	1199.88 ± 0.23
x1 = 0.1001	1214.52 ± 0.23	1208.2 ± 0.23	1201.82 ± 0.23	1195.45 ± 0.23	1189.07 ± 0.23
x1 = 0.1499	1203.4 ± 0.23	1197.13 ± 0.23	1190.88 ± 0.23	1184.63 ± 0.23	1178.37 ± 0.23
x1 = 0.2005	1191.71 ± 0.23	1185.57 ± 0.23	1179.46 ± 0.23	1173.35 ± 0.23	1167.25 ± 0.23
x1 = 0.2497	1180.12 ± 0.23	1174.1 ± 0.23	1168.1 ± 0.23	1162.13 ± 0.23	1156.13 ± 0.22
x1 = 0.3	1167.98 ± 0.23	1162.08 ± 0.23	1156.21 ± 0.22	1150.35 ± 0.22	1144.49 ± 0.22
x1 = 0.3431	1157.27 ± 0.23	1151.54 ± 0.22	1145.79 ± 0.22	1140.01 ± 0.22	1134.24 ± 0.22
x1 = 0.4001	1142.74 ± 0.22	1137.19 ± 0.22	1131.56 ± 0.22	1125.93 ± 0.22	1120.32 ± 0.22
x1 = 0.45	1130.1 ± 0.22	1124.64 ± 0.22	1119.13 ± 0.22	1113.61 ± 0.22	1108.09 ± 0.22
x1 = 0.4998	1117.1 ± 0.22	1111.69 ± 0.22	1106.32 ± 0.22	1100.93 ± 0.22	1095.54 ± 0.22
x1 = 0.5482	1104.11 ± 0.22	1098.84 ± 0.22	1093.55 ± 0.22	1088.31 ± 0.22	1083.03 ± 0.22
x1 = 0.5996	1089.99 ± 0.22	1084.84 ± 0.22	1079.71 ± 0.22	1074.57 ± 0.22	1069.43 ± 0.22
x1 = 0.6501	1075.78 ± 0.22	1070.7 ± 0.22	1065.65 ± 0.22	1060.62 ± 0.22	1055.6 ± 0.22
x1 = 0.7	1061.47 ± 0.22	1056.57 ± 0.22	1051.69 ± 0.22	1046.82 ± 0.21	1041.93 ± 0.21
x1 = 0.75	1046.74 ± 0.22	1041.96 ± 0.22	1037.22 ± 0.21	1032.47 ± 0.21	1027.7 ± 0.21
x1 = 0.8001	1031.67 ± 0.21	1027.02 ± 0.21	1022.41 ± 0.21	1017.79 ± 0.21	1013.17 ± 0.21
x1 = 0.8499	1016.33 ± 0.21	1011.73 ± 0.21	1007.33 ± 0.21	1002.84 ± 0.21	998.35 ± 0.21
x1 = 0.8998	1000.6 ± 0.21	996.22 ± 0.21	991.87 ± 0.21	987.37 ± 0.21	983.15 ± 0.21
x1 = 0.95	984.46 ± 0.21	980.22 ± 0.22	976.02 ± 0.22	971.79 ± 0.22	967.58 ± 0.22
x1 = 1	967.9 ± 0.21	963.8 ± 0.21	959.75 ± 0.21	955.65 ± 0.21	951.57 ± 0.21
